Measurements taken from patent US6407041B1, “Substituted 2,4-diamino-1,3,5-triazines” (Bayer Aktiengesellschaft, priority 1997, dated 2002).

Tests used:
weeds [1] = test: Pre-emergence test, overall action; assay type: in vivo; conditions: result in words
Procedure: (§1) Solvent: 5 parts by weight of acetone
(§2) Emulsifier: 1 part by weight of alkylaryl polyglycol ether
(§3) To produce a suitable preparation of active compound, 1 part by weight of active compound is mixed with the stated amount of solvent, the stated amount of emulsifier is added and the concentrate is diluted with water to the desired concentration.
(§4) Seeds of the test plants are sown in normal soil. After about 24 hours, the soil is sprayed with the preparation of active compound such that the particular amounts of active compound desired are applied per unit area. The concentration of the spray liquor is chosen so that the particular amounts of active compound desired are applied in 1000 l of water/ha.
(§5) After three weeks, the degree of damage to the plants is rated in % damage in comparison with the development of the untreated control.
(§6) 0%=no effect (like untreated control)

weeds [2] = test: Post-emergence test, overall action; assay type: in vivo; conditions: result in words
Procedure: as §1, §2
(§7) To produce a suitable preparation of active compound, I part by weight of active compound is mixed with the stated amount of solvent, the stated amount of emulsifier is added and the concentrate is diluted with water to the desired concentration.
as §4, with “Test plants having a height” for “Seeds”, “5-15 cm” for “the test plants”, “are” for “are sown in normal soil. After about 24 hours, the soil is”
as §5, §6

Sinapis [3] = test: Pre-emergence test (greenhouse); assay type: in vivo; conditions: 1000 g of ai./ha, rated after three weeks vs untreated control, 0%=no effect, 100%=total destruction
Procedure: as §1, §2, §3, §4, §5, §6

Abutilon [4] = test: Pre-emergence test (greenhouse); assay type: in vivo; conditions: 1000 g of ai./ha, rated after three weeks vs untreated control, 0%=no effect, 100%=total destruction
Procedure: as §1, §2, §3, §4, §5, §6

Setaria = test: Pre-emergence test (greenhouse); assay type: in vivo; conditions: 1000 g of ai./ha, rated after three weeks vs untreated control, 0%=no effect, 100%=total destruction
Procedure: as §1, §2, §3, §4, §5, §6

Galium [5] = test: Pre-emergence test (greenhouse); assay type: in vivo; conditions: 1000 g of ai./ha, rated after three weeks vs untreated control, 0%=no effect, 100%=total destruction
Procedure: as §1, §2, §3, §4, §5, §6

Alopecurus [6] = test: Pre-emergence test (greenhouse); assay type: in vivo; conditions: 1000 g of ai./ha, rated after three weeks vs untreated control, 0%=no effect, 100%=total destruction
Procedure: as §1, §2, §3, §4, §5, §6

Amaranthus [7] = test: Pre-emergence test (greenhouse); assay type: in vivo; conditions: 1000 g of ai./ha, rated after three weeks vs untreated control, 0%=no effect, 100%=total destruction
Procedure: as §1, §2, §3, §4, §5, §6

Maize = test: Pre-emergence test (greenhouse), crop plant; assay type: in vivo; conditions: 1000 g of ai./ha, rated after three weeks vs untreated control, 0%=no effect, 100%=total destruction
Procedure: as §1, §2, §3, §4, §5, §6

Sinapis [8] = test: Post-emergence test/greenhouse; assay type: in vivo; conditions: 1000 g of ai./ha, test plants 5-15 cm, rated after three weeks vs untreated control, 0%=no effect, 100%=total destruction
Procedure: as §1, §2, §7
as §4, with “Test plants having a height” for “Seeds”, “5-15 cm” for “the test plants”, “are” for “are sown in normal soil. After about 24 hours, the soil is”
as §5, §6

Abutilon [9] = test: Post-emergence test/greenhouse; assay type: in vivo; conditions: 1000 g of ai./ha, test plants 5-15 cm, rated after three weeks vs untreated control, 0%=no effect, 100%=total destruction
Procedure: as §1, §2, §7
as §4, with “Test plants having a height” for “Seeds”, “5-15 cm” for “the test plants”, “are” for “are sown in normal soil. After about 24 hours, the soil is”
as §5, §6

Galium [10] = test: Post-emergence test/greenhouse; assay type: in vivo; conditions: 1000 g of ai./ha, test plants 5-15 cm, rated after three weeks vs untreated control, 0%=no effect, 100%=total destruction
Procedure: as §1, §2, §7
as §4, with “Test plants having a height” for “Seeds”, “5-15 cm” for “the test plants”, “are” for “are sown in normal soil. After about 24 hours, the soil is”
as §5, §6

Alopecurus [11] = test: Post-emergence test/greenhouse; assay type: in vivo; conditions: 1000 g of ai./ha, test plants 5-15 cm, rated after three weeks vs untreated control, 0%=no effect, 100%=total destruction
Procedure: as §1, §2, §7
as §4, with “Test plants having a height” for “Seeds”, “5-15 cm” for “the test plants”, “are” for “are sown in normal soil. After about 24 hours, the soil is”
as §5, §6

Amaranthus [12] = test: Post-emergence test/greenhouse; assay type: in vivo; conditions: 1000 g of ai./ha, test plants 5-15 cm, rated after three weeks vs untreated control, 0%=no effect, 100%=total destruction
Procedure: as §1, §2, §7
as §4, with “Test plants having a height” for “Seeds”, “5-15 cm” for “the test plants”, “are” for “are sown in normal soil. After about 24 hours, the soil is”
as §5, §6

## CCc1nc(N)nc(NC(CC)COCc2ccc(F)cc2)n1 (racemic) [Example 1, 2-amino-4-ethyl-6-[1-(4-fluorobenzyloxymethyl)-propylamino]-1,3,5-triazine]
other
  melting point: 96 °C

## CCC(COCc1ccccc1C)Nc1nc(NC(C)=O)nc(C(C)(C)F)n1 (racemic) [Example 2]
other
  melting point: 108 °C

## CCC(COCc1ccccc1)Nc1nc(N)nc(C(C)(C)F)n1 (centres unmarked) [Example 8]
Weeds [1]
  action against weeds: very strong action against weeds
Weeds [2]
  action against weeds: very strong action against weeds
other
  melting point: 114 °C

## CCC(COCc1cccc(Cl)c1)Nc1nc(N)nc(C(C)(C)F)n1 (centres unmarked) [Example 14]
Weeds [1]
  action against weeds: very strong action against weeds
Weeds [2]
  action against weeds: very strong action against weeds
other
  melting point: 104 °C

## CCC(COCc1ccccc1)Nc1nc(N)nc(C(C)(C)F)n1 (centres unmarked) [drawing 495]
Sinapis [3]
  degree of damage to the plants, Sinapis: 100%
Abutilon [4]
  degree of damage to the plants, Abutilon: 100%
Setaria
  degree of damage to the plants, Setaria: 100%
Galium [5]
  degree of damage to the plants, Galium: 100%
Alopecurus [6]
  degree of damage to the plants, Alopecurus: 100%
Amaranthus [7]
  degree of damage to the plants, Amaranthus: 100%

## CCC(COCc1cccc(Cl)c1)Nc1nc(N)nc(C(C)(C)F)n1 (centres unmarked) [drawing 496]
Maize
  degree of damage to the plants, Maize: 10%
Sinapis [3]
  degree of damage to the plants, Sinapis: 90%
Abutilon [4]
  degree of damage to the plants, Abutilon: 95%
Alopecurus [6]
  degree of damage to the plants, Alopecurus: 95%
Amaranthus [7]
  degree of damage to the plants, Amaranthus: 100%

## CCC(COCc1ccccc1)Nc1nc(N)nc(C(C)(C)F)n1 (centres unmarked) [drawing 497]
Sinapis [8]
  degree of damage to the plants, Sinapis: 100%
Abutilon [9]
  degree of damage to the plants, Abutilon: 100%
Galium [10]
  degree of damage to the plants, Galium: 90%
Alopecurus [11]
  degree of damage to the plants, Alopecurus: 95%
Amaranthus [12]
  degree of damage to the plants, Amaranthus: 100%

## CCC(COCc1cccc(Cl)c1)Nc1nc(N)nc(C(C)(C)F)n1 (centres unmarked) [drawing 498]
Sinapis [8]
  degree of damage to the plants, Sinapis: 100%
Abutilon [9]
  degree of damage to the plants, Abutilon: 100%
Galium [10]
  degree of damage to the plants, Galium: 95%
Alopecurus [11]
  degree of damage to the plants, Alopecurus: 100%
Amaranthus [12]
  degree of damage to the plants, Amaranthus: 100%
